Test results from PubChem BioAssay (NCI).
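96-well plates; 48 h exposure; 5 concentrations. Endpoints by linear interpolation between flanking doses. Not reached: highest tested concentration assigned. GI50 is the concentration that inhibits growth by half. TGI: total growth inhibition.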

Tests used:
Test in all cases: NCI anticancer screen, dose series, 48 h
[1] = tested on: SF-539 CNS
[2] = tested on: NCI-H23 lung
[3] = tested on: SK-MEL-28 melanoma
[4] = tested on: MDA-MB-231 breast
[5] = tested on: HS 578T breast
[6] = tested on: SW-620 colon
[7] = tested on: M14 melanoma
[8] = tested on: OVCAR-3 ovarian
[9] = tested on: A498 renal
[10] = tested on: T-47D breast

| SMILES | GI50 [1] | TGI [1] | GI50 [2] | TGI [2] | GI50 [3] | TGI [3] | GI50 [4] | TGI [4] | GI50 [5] | TGI [5] | GI50 [6] | TGI [6] | GI50 [7] | TGI [7] | GI50 [8] | TGI [8] | GI50 [9] | TGI [9] | GI50 [10] | TGI [10] |
| --- | --- | --- | --- | --- | --- | --- | --- | --- | --- | --- | --- | --- | --- | --- | --- | --- | --- | --- | --- | --- |
| CCOC(=O)NC(=S)N(CC(=O)c1cc(OC)c(OC)c(OC)c1)c1ccc(Cl)cc1 | > 100 µM | > 100 µM | > 100 µM | > 100 µM | 75.8 µM | > 100 µM | 45.9 µM | > 100 µM | 96.4 µM | > 100 µM | > 100 µM | > 100 µM | 36.7 µM | > 100 µM | > 100 µM | > 100 µM | 90.1 µM | > 100 µM | 23.5 µM | 72.9 µM |
| COC(=N)C1(C#N)NC(c2ccsc2)C(C#N)(C#N)NC1c1ccsc1 (stereo not drawn) |  | > 100 µM |  | > 100 µM |  | > 100 µM |  | > 100 µM |  | > 100 µM |  | > 100 µM |  | > 100 µM |  | > 100 µM |  | > 100 µM |  | > 100 µM |
| CCC1(c2ccc(N3C(=O)c4cccc5cc([N+](=O)[O-])cc(c45)C3=O)cc2)CCC(=O)NC1=O (stereo not drawn) |  |  |  | > 66.2 µM |  | 86.8 µM |  | 21.4 µM |  | 64.4 µM |  | > 100 µM |  | > 100 µM |  | 56.5 µM |  | 97.8 µM |  | > 100 µM |
| COc1cc2c(cc1O)C1Cc3ccc(OC)c(O)c3C[N+]1(C)CC2 (stereo not drawn) |  | > 100 µM |  | > 100 µM |  | > 100 µM |  | > 100 µM |  | > 100 µM |  | > 100 µM |  | > 100 µM |  |  |  | > 100 µM |  | > 100 µM |
| COc1cc2c(/C=C3/C(=O)Nc4ccccc43)c(Cl)n(Cc3ccc(Cl)cc3)c2cc1C |  | 0.668 µM |  | 0.644 µM |  | 22.9 µM |  | 0.754 µM |  | 9.01 µM |  | 17.5 µM |  | 1.75 µM |  | 0.432 µM |  | 3.4 µM |  | 24.2 µM |
| N#Cc1c(NC(=S)Nc2ccc(Cl)cc2)sc2c1CCN(N1CCc3c(sc(NC(=S)Nc4ccc(Cl)cc4)c3C#N)C1)C2 |  | 34.2 µM |  | > 100 µM |  | > 100 µM |  | 27.2 µM |  | > 100 µM |  | > 100 µM |  | 23.2 µM |  | > 100 µM |  | 36.9 µM |  | > 100 µM |
| CCOC(=O)c1c(-c2ccc(OC)cc2)ccn1C |  | > 10 µM |  | > 10 µM |  | > 10 µM |  | > 10 µM |  | > 10 µM |  | > 10 µM |  | > 10 µM |  | > 10 µM |  |  |  | > 10 µM |
| CC(O)c1nc(C#N)c(N)o1 (stereo not drawn) |  | > 100 µM |  | > 100 µM |  | > 100 µM |  | > 100 µM |  | > 100 µM |  | > 100 µM |  | > 100 µM |  | > 100 µM |  | > 100 µM |  | > 100 µM |
| Cc1nc2c(Br)cc(Br)cc2c(=O)n1-c1ccccc1NC1OC(CO)C(O)C(O)C1O (stereo not drawn) |  | > 100 µM |  | > 100 µM |  | > 100 µM |  | > 100 µM |  | > 100 µM |  | > 100 µM |  | > 100 µM |  | > 100 µM |  | > 100 µM |  | > 100 µM |
| Cc1nc(NC(C)(CO)CO)nc(N/N=C/c2ccc(Cl)cc2)c1C(=O)Nc1ccc(Cl)cc1 |  | > 100 µM |  | > 100 µM |  | > 100 µM |  | > 100 µM |  | > 100 µM |  | > 100 µM |  | > 100 µM |  | > 100 µM |  |  |  | > 100 µM |
| COC(=O)c1c2c(cc3c1CC1(Cc4cc5c(c(C=O)c4C1)CCC5)C3)CCC2 (stereo not drawn) |  | > 100 µM |  | > 100 µM |  | > 100 µM |  | 91.7 µM |  | > 100 µM |  | > 100 µM |  | 75.6 µM |  | 99.2 µM |  | > 100 µM |  | > 100 µM |
| Cc1c(C)c2c(c(N)c1C#N)C(=O)N(N)C2=O |  | > 100 µM |  | > 100 µM |  | > 100 µM |  | > 100 µM |  | > 100 µM |  | > 100 µM |  | > 100 µM |  | > 100 µM |  | > 100 µM |  | > 100 µM |
| Cn1/c(=N\N=C2\C=C3CCCCC3(C)CC2)sc2ccccc21 (stereo not drawn) |  | > 100 µM |  | > 100 µM |  | > 100 µM |  | > 100 µM |  | > 100 µM |  | > 100 µM |  | > 100 µM |  | > 100 µM |  | > 100 µM |  | > 100 µM |
| C[n+]1cccc2ccc3cccnc3c21 |  | > 100 µM |  | > 100 µM |  | > 100 µM |  | > 100 µM |  | 64.3 µM |  | > 100 µM |  | > 100 µM |  | > 100 µM |  | > 100 µM |  | 96.5 µM |
| Cc1cn(CCCCCCOC(=O)NC(CCCNC(N)=O)C(=O)O)c(=O)[nH]c1=O (stereo not drawn) |  | > 100 µM |  | > 100 µM |  | > 100 µM |  | > 100 µM |  | > 100 µM |  | > 100 µM |  | > 100 µM |  | > 100 µM |  | > 100 µM |  | > 100 µM |
| COc1ccc(N2C(=O)C3c4[nH]c5c(C)cccc5c4C4CCC(C(C)C)CC4C3C2=O)cc1 (stereo not drawn) |  |  |  | 40.7 µM |  | 31.5 µM |  | 34.8 µM |  | 27.7 µM |  | 45.7 µM |  | 26.8 µM |  | 28.4 µM |  | 32.8 µM |  | 48.6 µM |
| COc1ccc(-c2ccc(C(=O)C=P(c3ccccc3)(c3ccccc3)c3ccccc3)cc2)cc1 |  | 35.9 µM |  | 51 µM |  | 32 µM |  | 30.7 µM |  | 67.6 µM |  | 37.8 µM |  | 31.6 µM |  | 20.1 µM |  | 31.9 µM |  | 62.3 µM |
| O=c1c2cc(Br)cc(Br)c2[nH]c(=S)n1-c1ccc(N=Nc2ccc(O)c3cccnc23)cc1 |  | 31.3 µM |  |  |  | > 100 µM |  | > 100 µM |  | > 100 µM |  | > 100 µM |  | > 100 µM |  | 28.5 µM |  | > 100 µM |  | > 100 µM |
| CCc1nc(N)c2nc(-c3cccs3)oc2n1 |  | > 100 µM |  | > 100 µM |  | > 100 µM |  | > 100 µM |  | > 100 µM |  | > 100 µM |  | > 100 µM |  | > 100 µM |  |  |  | > 100 µM |
| O=P1(N(CCCl)CCCl)Oc2ccc(Cl)cc2C(C(Cl)(Cl)Cl)c2cc(Cl)ccc2O1 (stereo not drawn) |  | 29.9 µM |  | > 100 µM |  | > 100 µM |  | 44.4 µM |  | 41 µM |  | > 100 µM |  | 98.4 µM |  | 24.3 µM |  | > 100 µM |  | > 100 µM |
